Format in all cases: cell-based
Experiment [1] deals with MDA-MB-231, human breast cancer cells. Put plainly: Proliferation assay MDA-MB-231 (crystal violet, 4 days). The note with it: Homo sapiens, MDA-MB-231, 96 h, MDA-MB-231 cells, median, read-out: Prolif-MDA MB-231, IC50-[mol/l] (median). The method in brief: (§1)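 Growth was measured by crystal violet staining after cells had been treated with compounds (0.01-10 µmol/L, 0.1% DMSO) for 4 days, beginning 24 h after seeding. Values were normalized to a zero-point plate and to untreated controls, and IC50 values were derived by a four-parameter fit.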

Experiment [2] relates to CAL-120, human breast adenocarcinoma cells. The experiment is described as follows: Proliferation assay CAL-120 (crystal violet, 4 days). The note with it: Homo sapiens, CAL-120, 96 h, CAL-120 cells, median, read-out: Prolif-CAL-120, IC50-[mol/l] (median). The procedure, abridged: as §1
Experiment [3] has as its target T1, CYCLIN K (nuclear staining in CAL-120 cells) (Homo sapiens, UniProt O75909).
T1 construct: endogenous in cells; host or cells: CAL-120 human breast cancer cells (DSMZ ACC 459)
The experiment is described as follows: CYCLIN K nuclear protein level: immunofluorescence high content analysis (CAL-120). The following applies: 24 h, 50% reduction of nuclear CCNK staining intensity, median, read-out: CYCLIN K degradation IF, DC50-[mol/l] (median). The procedure, abridged:
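Readout is automated confocal image analysis of nuclear cyclin K immunofluorescence (Hoechst nuclei) after PFA fixation. Cells were CAL-120, exposed to compound dose-response 24 h at 37 °C; values are DC50 for halving nuclear CCNK signal relative to DMSO and control wells.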

We go through nine compounds from patent US20230117034A1, “PYRAZOLOTRIAZINES” (Bayer Aktiengesellschaft, priority 2019, published 2023).

Each structure is given as a SMILES string.

T1 sequence (O75909 whole entry): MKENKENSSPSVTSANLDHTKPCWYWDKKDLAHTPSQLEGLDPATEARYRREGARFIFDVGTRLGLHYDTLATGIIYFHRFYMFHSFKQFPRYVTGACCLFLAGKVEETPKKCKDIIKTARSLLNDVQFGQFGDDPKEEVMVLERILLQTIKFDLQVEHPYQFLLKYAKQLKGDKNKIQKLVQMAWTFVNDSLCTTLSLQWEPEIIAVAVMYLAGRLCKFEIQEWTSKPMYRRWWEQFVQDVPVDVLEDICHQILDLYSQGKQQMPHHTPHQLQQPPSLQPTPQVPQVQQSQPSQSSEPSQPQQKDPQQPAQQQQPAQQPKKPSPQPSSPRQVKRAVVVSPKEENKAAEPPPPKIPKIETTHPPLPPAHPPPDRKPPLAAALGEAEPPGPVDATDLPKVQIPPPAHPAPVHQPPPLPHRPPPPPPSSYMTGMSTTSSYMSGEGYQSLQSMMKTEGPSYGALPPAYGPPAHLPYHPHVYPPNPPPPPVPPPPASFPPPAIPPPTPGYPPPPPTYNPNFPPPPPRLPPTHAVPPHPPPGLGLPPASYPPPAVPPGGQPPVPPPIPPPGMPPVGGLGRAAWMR
T1 sequence (Q9NYV4 whole entry partner): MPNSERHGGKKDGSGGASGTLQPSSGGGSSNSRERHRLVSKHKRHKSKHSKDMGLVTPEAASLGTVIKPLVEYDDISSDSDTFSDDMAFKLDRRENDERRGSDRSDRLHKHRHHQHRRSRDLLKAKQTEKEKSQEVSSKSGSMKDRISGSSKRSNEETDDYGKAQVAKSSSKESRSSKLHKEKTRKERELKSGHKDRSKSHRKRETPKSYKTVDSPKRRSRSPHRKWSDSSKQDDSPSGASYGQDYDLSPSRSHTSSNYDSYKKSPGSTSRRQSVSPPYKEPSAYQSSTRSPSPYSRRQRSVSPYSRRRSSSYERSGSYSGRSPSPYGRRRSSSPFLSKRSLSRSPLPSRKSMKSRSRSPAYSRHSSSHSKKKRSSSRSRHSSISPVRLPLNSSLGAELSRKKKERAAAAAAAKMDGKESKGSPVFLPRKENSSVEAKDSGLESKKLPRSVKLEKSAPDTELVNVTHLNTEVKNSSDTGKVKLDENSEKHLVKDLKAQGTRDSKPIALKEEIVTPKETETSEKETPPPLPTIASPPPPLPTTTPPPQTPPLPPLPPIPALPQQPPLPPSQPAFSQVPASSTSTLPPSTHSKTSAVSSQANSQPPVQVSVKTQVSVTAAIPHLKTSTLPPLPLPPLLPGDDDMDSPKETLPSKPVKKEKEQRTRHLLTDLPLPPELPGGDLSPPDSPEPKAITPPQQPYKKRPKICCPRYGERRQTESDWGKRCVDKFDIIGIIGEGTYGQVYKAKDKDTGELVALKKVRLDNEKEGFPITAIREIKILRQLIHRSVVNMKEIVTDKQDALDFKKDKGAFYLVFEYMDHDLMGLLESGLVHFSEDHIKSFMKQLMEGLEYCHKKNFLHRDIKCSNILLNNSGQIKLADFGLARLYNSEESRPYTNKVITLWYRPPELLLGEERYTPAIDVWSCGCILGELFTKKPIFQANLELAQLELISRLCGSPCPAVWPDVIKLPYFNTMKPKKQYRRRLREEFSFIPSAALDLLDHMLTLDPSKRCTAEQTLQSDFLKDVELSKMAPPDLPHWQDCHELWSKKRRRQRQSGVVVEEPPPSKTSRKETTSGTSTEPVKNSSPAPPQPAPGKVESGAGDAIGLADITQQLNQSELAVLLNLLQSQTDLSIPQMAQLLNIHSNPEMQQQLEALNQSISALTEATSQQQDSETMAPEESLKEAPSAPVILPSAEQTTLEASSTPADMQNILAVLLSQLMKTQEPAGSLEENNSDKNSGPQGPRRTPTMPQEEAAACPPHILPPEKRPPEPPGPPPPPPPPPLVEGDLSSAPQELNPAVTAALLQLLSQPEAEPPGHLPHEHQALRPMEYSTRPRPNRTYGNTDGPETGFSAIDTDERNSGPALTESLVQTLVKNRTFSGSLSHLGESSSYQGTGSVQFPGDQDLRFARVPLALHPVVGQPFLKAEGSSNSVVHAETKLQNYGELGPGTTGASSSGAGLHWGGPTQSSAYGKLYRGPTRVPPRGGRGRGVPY

`Cc1ccc2[nH]c(CNc3nc(N4C[C@@H](C)N[C@@H](C)C4)nc4c(C5CC5)cnn34)nc2c1` [Example 194, 8-cyclopropyl-2-[(3R,5S)-3,5-dimethylpiperazin-1-yl]-N-[(5-methyl-1H-benzimidazol-2-yl)methyl]pyrazolo[1,5-a][1,3,5]triazin-4-amine]: the IC50 in experiment [1] was 1.69 nM; in experiment [2], 1.16 nM. In addition, the DC50 in experiment [3] turned out to be 0.0954 nM.

`OC[C@@H]1CCCCN1c1nc(NCc2nc3c(F)cccc3[nH]2)n2ncc(C3CC3)c2n1` [Example 189, [(2S)-1-(8-cyclopropyl-4-{[(4-fluoro-1H-benzimidazol-2-yl)methyl]amino}pyrazolo[1,5-a][1,3,5]triazin-2-yl)piperidin-2-yl]methanol]: the IC50 in experiment [1] came to 10.7 nM; in experiment [2], 4.67 nM. In addition, the DC50 in experiment [3] was 0.318 nM.

As for `Cc1ccc2[nH]c(CNc3nc(N4C[C@H]5C[C@@H]4CO5)nc4c(Br)cnn34)nc2c1` [Example 192, 8-bromo-N-[(5-methyl-1H-benzimidazol-2-yl)methyl]-2-[(1R,4R)-2-oxa-5-azabicyclo[2.2.1]heptan-5-yl]pyrazolo[1,5-a][1,3,5]triazin-4-amine], the values for the IC50 in experiment [1] and in experiment [2] were 4.91 nM and 3.08 nM, respectively. Further, the DC50 in experiment [3] was 0.589 nM.

Regarding `COc1cccc2[nH]c(CNc3nc(N4CCNCC4)nc4c(C5CC5)cnn34)nc12` [Example 211, 8-cyclopropyl-N-[(4-methoxy-1H-benzimidazol-2-yl)methyl]-2-(piperazin-1-yl)pyrazolo[1,5-a][1,3,5]triazin-4-amine], the values for the IC50 in experiment [1] and in experiment [2] were 7.03 nM and 2.29 nM, respectively. Besides, the DC50 in experiment [3] turned out to be 0.478 nM.

Consider `COc1cccc2[nH]c(CNc3nc(N4C[C@@H](C)N[C@@H](C)C4)nc4c(C5CC5)cnn34)nc12` [Example 212, 8-cyclopropyl-2-[(3R,5S)-3,5-dimethylpiperazin-1-yl]-N-[(4-methoxy-1H-benzimidazol-2-yl)methyl]pyrazolo[1,5-a][1,3,5]triazin-4-amine], for which the IC50 in experiment [1] was determined as 5.45 nM; in experiment [2], 2.29 nM. The DC50 in experiment [3] worked out at 0.47 nM.

Turning to `COc1cccc2[nH]c(CNc3nc(N4CCOCC4)nc4c(C5CC5)cnn34)nc12` [Example 213, 8-cyclopropyl-N-[(4-methoxy-1H-benzimidazol-2-yl)methyl]-2-morpholino-pyrazolo[1,5-a][1,3,5]triazin-4-amine], the IC50 was 24.8 nM in experiment [1] and 10.7 nM in experiment [2]. The DC50 in experiment [3] is 1.55 nM.

In the case of `CN1C[C@@H]2C[C@H]1CN2c1nc(NCc2nc3ccccc3[nH]2)n2ncc(Br)c2n1` [Example 219, N-[(1H-benzimidazol-2-yl)methyl]-8-bromo-2-[(1S,4S)-5-methyl-2,5-diazabicyclo[2.2.1]heptan-2-yl]pyrazolo[1,5-a][1,3,5]triazin-4-amine], the IC50 in experiment [1] is 50.3 nM; in experiment [2] it was 27.2 nM. Besides, in experiment [3], the DC50 is 1.23 nM.

Consider `CC1(C)CN(c2nc(NCc3nc4ccccc4[nH]3)n3ncc(Br)c3n2)CCN1` [Example 216, N-[(1H-benzimidazol-2-yl)methyl]-8-bromo-2-(3,3-dimethylpiperazin-1-yl)pyrazolo[1,5-a][1,3,5]triazin-4-amine], for which the values for the IC50 in experiment [1] and in experiment [2] were 16.8 nM and 8.55 nM, respectively. In experiment [3], the DC50 was found to be 0.354 nM.

For the compound `OC[C@@H]1CCCCN1c1nc(NCc2nc3cc(F)ccc3[nH]2)n2ncc(C3CC3)c2n1` [Example 191, [(2S)-1-(8-cyclopropyl-4-{[(5-fluoro-1H-benzimidazol-2-yl)methyl]amino}pyrazolo[1,5-a][1,3,5]triazin-2-yl)piperidin-2-yl]methanol], the IC50 in experiment [1] came to 9.68 nM; in experiment [2] it was 1.16 nM. Besides, the DC50 in experiment [3] was found to be 0.187 nM.
